Assay type in all cases: functional, cell-based
Series [1] addresses T1, Solute carrier family 22 member 6 (Mus musculus, UniProt Q8VC69).
T1 sequence (Q8VC69 whole entry): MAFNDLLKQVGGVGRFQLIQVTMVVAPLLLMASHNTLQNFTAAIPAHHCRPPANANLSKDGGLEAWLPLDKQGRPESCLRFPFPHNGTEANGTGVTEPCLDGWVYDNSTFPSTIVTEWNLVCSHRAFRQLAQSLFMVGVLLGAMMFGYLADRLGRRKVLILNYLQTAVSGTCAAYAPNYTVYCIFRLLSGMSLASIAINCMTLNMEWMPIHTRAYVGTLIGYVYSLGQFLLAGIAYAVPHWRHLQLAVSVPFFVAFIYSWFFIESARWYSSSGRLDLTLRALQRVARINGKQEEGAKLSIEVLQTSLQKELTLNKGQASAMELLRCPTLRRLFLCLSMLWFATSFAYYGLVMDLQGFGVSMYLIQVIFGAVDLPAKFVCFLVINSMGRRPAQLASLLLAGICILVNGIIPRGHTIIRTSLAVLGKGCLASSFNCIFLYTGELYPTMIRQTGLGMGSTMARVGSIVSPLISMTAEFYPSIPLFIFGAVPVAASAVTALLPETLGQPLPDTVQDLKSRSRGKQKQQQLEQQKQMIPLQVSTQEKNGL
Kind of series: TP_TRANSPORTER: inhibition of PAH uptake (PAH: 20 uM, Riboflavin: 1000 uM) in OAT-expressing COS-7 cells. The settings on record: monkey, cos-7, 1000 µM.

Series [2] addresses T1, Solute carrier family 22 member 6. Kind of series: TP_TRANSPORTER: inhibition of PAH uptake (PAH: 20 uM, Indomethacin: 1000 uM) in OAT-expressing COS-7 cells. To be noted: monkey, cos-7, 1000 µM.
The target is the same in series [3]. Kind of series: TP_TRANSPORTER: inhibition of PAH uptake (PAH: 20 uM, alpha-KG: 1000 uM) in OAT-expressing COS-7 cells. The settings on record: monkey, cos-7, 1000 µM.
Series [4] has the same target. Kind of series: TP_TRANSPORTER: inhibition of PAH uptake (PAH: 20 uM, Carprofen: 1000 uM) in OAT-expressing COS-7 cells. To be noted: monkey, cos-7, 1000 µM.
For series [5] the target is unchanged. Kind of series: TP_TRANSPORTER: inhibition of PAH uptake (PAH: 20 uM, Enalapril: 1000 uM) in OAT-expressing COS-7 cells. To be noted: monkey, cos-7, 1000 µM.
For series [6] the target is unchanged. Kind of series: TP_TRANSPORTER: inhibition of PAH uptake (PAH: 20 uM, Semustine: 300 uM) in OAT-expressing COS-7 cells. The settings on record: monkey, cos-7, 300 µM.
For series [7] the target is unchanged. Kind of series: TP_TRANSPORTER: inhibition of PAH uptake (PAH: 20 uM, Pantothenic acid: 1000 uM) in OAT-expressing COS-7 cells. To be noted: monkey, cos-7, 1000 µM.
For series [8] the target is unchanged. Kind of series: TP_TRANSPORTER: inhibition of PAH uptake (PAH: 20 uM, Captopril: 1000 uM) in OAT-expressing COS-7 cells. The settings on record: monkey, cos-7, 1000 µM.
Series [9] has the same target. Kind of series: TP_TRANSPORTER: inhibition of PAH uptake (PAH: 20 uM, Folic acid: 1000 uM) in OAT-expressing COS-7 cells. To be noted: monkey, cos-7, 1000 µM.
Series [10] has the same target. Kind of series: TP_TRANSPORTER: inhibition of PAH uptake (PAH: 20 uM, Sulindac: 1000 uM) in OAT-expressing COS-7 cells. The settings on record: monkey, cos-7, 1000 µM.
Series [11] shares this target. Kind of series: TP_TRANSPORTER: inhibition of PAH uptake (PAH: 20 uM, Diclofenac: 1000 uM) in OAT-expressing COS-7 cells. The settings on record: monkey, cos-7, 1000 µM.

Each structure is given as a SMILES string.

This note sets out measurements from ChEMBL document CHEMBL2073839, “Heterologous expression and functional characterization of a mouse renal organic anion transporter in mammalian cells” (J Biol Chem, 1999).

On to `Cc1cc2nc3c(=O)[nH]c(=O)nc-3n(C[C@H](O)[C@H](O)[C@H](O)CO)c2cc1C` [RIBOFLAVIN], for which the Activity entry in series [1] was “inhibitor [(at a rough estimate) 40 % of control]”.

`COc1ccc2c(c1)c(CC(=O)O)c(C)n2C(=O)c1ccc(Cl)cc1` [INDOMETHACIN]: in series [2], the Activity entry is “inhibitor [(at a rough estimate) 5 % of control]”.

As to `O=C(O)CCC(=O)C(=O)O` [ALPHA-KETOGLUTARIC ACID], the Activity entry in series [3] is “inhibitor [(at a rough estimate) 10 % of control]”. With `CC(C(=O)O)c1ccc2c(c1)[nH]c1ccc(Cl)cc12` (stereo unspecified) [CARPROFEN], the Activity entry in series [4] is “inhibitor [(at a rough estimate) 5 % of control]”. Turning to `CCOC(=O)[C@H](CCc1ccccc1)N[C@@H](C)C(=O)N1CCC[C@H]1C(=O)O` [ENALAPRIL], the Activity result in series [5] is “inhibitor [(at a rough estimate) 45 % of control]”.

For `CC1CCC(NC(=O)N(CCCl)N=O)CC1` (stereo unspecified) [SEMUSTINE], the Activity result in series [6] is “inhibitor [(at a rough estimate) 35 % of control]”. As to `CC(C)(CO)[C@@H](O)C(=O)NCCC(=O)O` [PANTOTHENIC ACID], the Activity entry in [7] is “inhibitor [(at a rough estimate) 60 % of control]”. For `C[C@H](CS)C(=O)N1CCC[C@H]1C(=O)O` [CAPTOPRIL], in series [8], the Activity entry was “inhibitor [(at a rough estimate) 50 % of control]”.

For the compound `Nc1nc2ncc(CNc3ccc(C(=O)N[C@@H](CCC(=O)O)C(=O)O)cc3)nc2c(=O)[nH]1` [FOLIC ACID], the Activity result in [9] is “inhibitor [(at a rough estimate) 55 % of control]”. In the case of `CC1=C(CC(=O)O)c2cc(F)ccc2/C1=C\c1ccc([S+](C)[O-])cc1` (stereo unspecified) [SULINDAC], the Activity entry in [10] is “inhibitor [(at a rough estimate) 5 % of control]”.

As for `O=C(O)Cc1ccccc1Nc1c(Cl)cccc1Cl` [DICLOFENAC], in series [11], the Activity entry is “inhibitor [(at a rough estimate) 5 % of control]”.
